How the values were obtained:
Format in all cases: in vivo
Bassia scoparia (KCHSC) [1] = experiment: Pre-emergence herbicide efficacy at 320 g/ha, greenhouse pot test
Text: (§1) Seeds of mono- and dicotyledonous weed plants were placed in plastic pots in sandy loam soil (doubly sown with in each case one species of mono- or dicotyledonous weed plants per pot) and covered with soil. The compounds of the invention, formulated in the form of wettable powders (WP) or as emulsion concentrates (EC), were then applied onto the surface of the covering soil as aqueous suspension or emulsion with addition of 0.5% additive at a water application rate of 600 liters per hectare (converted). After the treatment, the pots were placed in a greenhouse and kept under good growth conditions for the test plants. After about 3 weeks, the effect of the preparations was scored visually in comparison with untreated controls as percentages. For example, 100% activity=the plants have died, 0% activity=like control plants. Tables C1 to C12 below show the effects of selected compounds of the general formula (I) according to Table 1 on various harmful plants and an application rate corresponding to 320 g/ha, which were obtained by the experimental procedure mentioned above.

[2] = tested on: Echinochloa crus-galli (ECHCG); experiment: as above; conditions: visual scoring vs untreated control after about 3 weeks
Text: as §1

[3] = tested on: Matricaria inodora (MATIN); experiment: as above; conditions: visual scoring vs untreated control after about 3 weeks
Text: as §1

Poa annua (POAAN) [4] = experiment: as above; conditions: visual scoring vs untreated control after about 3 weeks
Text: as §1

[5] = tested on: Abutilon theophrasti (ABUTH); experiment: as above; conditions: visual scoring vs untreated control after about 3 weeks
Text: as §1

Stellaria media (STEME) [6] = experiment: as above; conditions: visual scoring vs untreated control after about 3 weeks
Text: as §1

[7] = tested on: Alopecurus myosuroides (ALOMY); experiment: as above; conditions: visual scoring vs untreated control after about 3 weeks
Text: as §1

Setaria viridis (SETVI) = experiment: as above; conditions: visual scoring vs untreated control after about 3 weeks
Text: as §1

Veronica persica (VERPE) [8] = experiment: as above; conditions: visual scoring vs untreated control after about 3 weeks
Text: as §1

[9] = tested on: Amaranthus retroflexus (AMARE); experiment: as above; conditions: visual scoring vs untreated control after about 3 weeks
Text: as §1

Bassia scoparia (KCHSC) [10] = experiment: Post-emergence herbicidal efficacy at 320 g/ha, greenhouse pot test; conditions: visual rating vs untreated control after about 3 weeks
Protocol: (§2) Seeds of mono- and dicotyledonous weed plants were placed in plastic pots in sandy loam soil (doubly sown with in each case one species of mono- or dicotyledonous weed plants per pot), covered with soil and cultivated in a greenhouse under controlled growth conditions. 2 to 3 weeks after sowing, the test plants were treated at the one-leaf stage. The compounds of the invention, formulated in the form of wettable powders (WP) or as emulsion concentrates (EC), were applied onto the green parts of the plants as aqueous suspension or emulsion with addition of 0.5% additive at a water application rate of 600 liters per hectare (converted). After the test plants had been kept in the greenhouse under optimum growth conditions for about 3 weeks, the activity of the preparations was rated visually in comparison to untreated controls. For example, 100% activity=the plants have died, 0% activity=like control plants. Tables […] 11 below show the effects of selected compounds of the general formula (I) according to Table 1 on various harmful plants and an application rate corresponding to 320 g/ha, which were obtained by the experimental procedure mentioned above.

Poa annua (POAAN) [11] = experiment: as above; conditions: visual rating vs untreated control after about 3 weeks
Protocol: as §2

[12] = tested on: Abutilon theophrasti (ABUTH); experiment: as above; conditions: visual rating vs untreated control after about 3 weeks
Protocol: as §2

Stellaria media (STEME) [13] = experiment: as above; conditions: visual rating vs untreated control after about 3 weeks
Protocol: as §2

Veronica persica (VERPE) [14] = experiment: as above; conditions: 320 g/ha, visual rating vs untreated control after about 3 weeks
Protocol: as §2

[15] = tested on: Amaranthus retroflexus (AMARE); experiment: as above; conditions: visual rating vs untreated control after about 3 weeks
Protocol: as §2

[16] = dosage 1280 g/ha in Table C6, visual scoring after about 3 weeks

Cc1cc(C)c(-c2cc(C(F)(F)F)on2)c(Oc2ncc(F)cn2)n1 [Example I-6]
90%: Pre-emergence efficacy against Bassia scoparia (KCHSC) (Bassia scoparia (KCHSC) [1]; 320 g/ha, visual scoring vs untreated control after about 3 weeks) | Pre-emergence efficacy against Alopecurus myosuroides (ALOMY) [7] | Post-emergence efficacy against Bassia scoparia (KCHSC) (Bassia scoparia (KCHSC) [10]) | Post-emergence efficacy against Poa annua (POAAN) (Poa annua (POAAN) [11]) | Post-emergence efficacy against Abutilon theophrasti (ABUTH) [12]
100%: Pre-emergence efficacy against Echinochloa crus-galli (ECHCG) [2] | Pre-emergence efficacy against Matricaria inodora (MATIN) [3] | Pre-emergence efficacy against Poa annua (POAAN) (Poa annua (POAAN) [4]) | Pre-emergence efficacy against Abutilon theophrasti (ABUTH) [5] | Pre-emergence efficacy against Stellaria media (STEME) (Stellaria media (STEME) [6]) | Pre-emergence efficacy against Setaria viridis (SETVI) (Setaria viridis (SETVI)) | Pre-emergence efficacy against Veronica persica (VERPE) (Veronica persica (VERPE) [8]) | Pre-emergence efficacy against Amaranthus retroflexus (AMARE) [9]

Cc1cc(C)c(-c2cc(C3(C)CC3)no2)c(Oc2ncc(F)cn2)n1 [Example I-299]
100%: Pre-emergence efficacy against Stellaria media (STEME) (Stellaria media (STEME) [6]) | Pre-emergence efficacy against Amaranthus retroflexus (AMARE) [9]
90%: Pre-emergence efficacy against Echinochloa crus-galli (ECHCG) [2] | Pre-emergence efficacy against Poa annua (POAAN) (Poa annua (POAAN) [4]) | Pre-emergence efficacy against Abutilon theophrasti (ABUTH) [5] | Pre-emergence efficacy against Setaria viridis (SETVI) (Setaria viridis (SETVI)) | Post-emergence efficacy against Abutilon theophrasti (ABUTH) [12] | Post-emergence action against Stellaria media (STEME) (Stellaria media (STEME) [13]) | Post-emergence efficacy against Veronica persica (VERPE) (Veronica persica (VERPE) [14])

Cc1cc(C)c(-n2cc(I)cn2)c(Oc2ncc(Cl)cn2)n1 [Example I-295]
100%: Pre-emergence efficacy against Bassia scoparia (KCHSC) (Bassia scoparia (KCHSC) [1]; [16]) | Pre-emergence efficacy against Matricaria inodora (MATIN) [3] | Pre-emergence efficacy against Abutilon theophrasti (ABUTH) [5] | Pre-emergence efficacy against Stellaria media (STEME) (Stellaria media (STEME) [6]) | Pre-emergence efficacy against Setaria viridis (SETVI) (Setaria viridis (SETVI)) | Pre-emergence efficacy against Amaranthus retroflexus (AMARE) [9] | Post-emergence efficacy against Veronica persica (VERPE) (Veronica persica (VERPE) [14])
90%: Pre-emergence efficacy against Echinochloa crus-galli (ECHCG) [2] | Pre-emergence efficacy against Poa annua (POAAN) (Poa annua (POAAN) [4]) | Pre-emergence efficacy against Veronica persica (VERPE) (Veronica persica (VERPE) [8]) | Post-emergence efficacy against Bassia scoparia (KCHSC) (Bassia scoparia (KCHSC) [10]) | Post-emergence action against Stellaria media (STEME) (Stellaria media (STEME) [13]) | Post-emergence efficacy against Amaranthus retroflexus (AMARE) [15]

Cc1cc(C)c(-c2cc(C3CC3)no2)c(Oc2ncc(Cl)cn2)n1 [Example I-179]
100%: Pre-emergence efficacy against Echinochloa crus-galli (ECHCG) [2] | Pre-emergence efficacy against Matricaria inodora (MATIN) [3] | Pre-emergence efficacy against Poa annua (POAAN) (Poa annua (POAAN) [4]) | Pre-emergence efficacy against Abutilon theophrasti (ABUTH) [5] | Pre-emergence efficacy against Stellaria media (STEME) (Stellaria media (STEME) [6]) | Pre-emergence efficacy against Setaria viridis (SETVI) (Setaria viridis (SETVI)) | Pre-emergence efficacy against Amaranthus retroflexus (AMARE) [9] | Post-emergence action against Stellaria media (STEME) (Stellaria media (STEME) [13]) | Post-emergence efficacy against Veronica persica (VERPE) (Veronica persica (VERPE) [14])
90%: Pre-emergence efficacy against Bassia scoparia (KCHSC) (Bassia scoparia (KCHSC) [1]; [16]) | Pre-emergence efficacy against Veronica persica (VERPE) (Veronica persica (VERPE) [8]) | Post-emergence efficacy against Bassia scoparia (KCHSC) (Bassia scoparia (KCHSC) [10]) | Post-emergence efficacy against Poa annua (POAAN) (Poa annua (POAAN) [11]) | Post-emergence efficacy against Abutilon theophrasti (ABUTH) [12] | Post-emergence efficacy against Amaranthus retroflexus (AMARE) [15]

Cc1cc(C)c(-c2cc(C3CC3)no2)c(Oc2ncc(F)cn2)n1 [Example I-178]
90%: Pre-emergence efficacy against Bassia scoparia (KCHSC) (Bassia scoparia (KCHSC) [1]; [16]) | Post-emergence efficacy against Bassia scoparia (KCHSC) (Bassia scoparia (KCHSC) [10]) | Post-emergence efficacy against Abutilon theophrasti (ABUTH) [12]
100%: Pre-emergence efficacy against Echinochloa crus-galli (ECHCG) [2] | Pre-emergence efficacy against Matricaria inodora (MATIN) [3] | Pre-emergence efficacy against Poa annua (POAAN) (Poa annua (POAAN) [4]) | Pre-emergence efficacy against Abutilon theophrasti (ABUTH) [5] | Pre-emergence efficacy against Stellaria media (STEME) (Stellaria media (STEME) [6]) | Pre-emergence efficacy against Setaria viridis (SETVI) (Setaria viridis (SETVI)) | Pre-emergence efficacy against Veronica persica (VERPE) (Veronica persica (VERPE) [8]) | Pre-emergence efficacy against Amaranthus retroflexus (AMARE) [9] | Post-emergence efficacy against Poa annua (POAAN) (Poa annua (POAAN) [11]) | Post-emergence action against Stellaria media (STEME) (Stellaria media (STEME) [13]) | Post-emergence efficacy against Veronica persica (VERPE) (Veronica persica (VERPE) [14]) | Post-emergence efficacy against Amaranthus retroflexus (AMARE) [15]

Cc1cc(C)c(-c2cc(CC3CC3)no2)c(Oc2ncc(Cl)cn2)n1 [Example I-201]
90%: Pre-emergence efficacy against Bassia scoparia (KCHSC) (Bassia scoparia (KCHSC) [1]; [16]) | Pre-emergence efficacy against Abutilon theophrasti (ABUTH) [5] | Pre-emergence efficacy against Stellaria media (STEME) (Stellaria media (STEME) [6]) | Pre-emergence efficacy against Amaranthus retroflexus (AMARE) [9] | Post-emergence efficacy against Abutilon theophrasti (ABUTH) [12] | Post-emergence action against Stellaria media (STEME) (Stellaria media (STEME) [13]) | Post-emergence efficacy against Veronica persica (VERPE) (Veronica persica (VERPE) [14])
100%: Pre-emergence efficacy against Poa annua (POAAN) (Poa annua (POAAN) [4])
